US20130296346A1, “DIPHENYL-AMINE DERIVATIVES: USES, PROCESS OF SYNTHESIS AND PHARMACEUTICAL COMPOSITIONS” (Faes Farma, S.A., priority 2010, published 2013)

Assays:
[1] = test system: haematological cancer cell lines; test: Apoptosis induction in haematological cancer cell lines; type: cell-based
[2] = test system: colorectal cancer cells from patients with Kras mutation; test: Mutated Kras colon cancer orthotopic animal model; type: in vivo, mice; conditions: compared with vehicle control, FIG. 4A
Description: Using an animal model based on colorectal cancer cells from patients with Kras mutation, implanted on mice in the colon area (Yao, M. Cyclooxygenase-2 selective inhibition with NS-398 suppresses proliferation and invasiveness and delays liver metastasis in colorectal cancer. Br. J. Cancer, 2004 Feb. 9; 90(3):712-9), the effects of Compound 3 were tested.

[3] = test system: Jurkat (acute T-cell leukaemia); test: Apoptosis, sub-G1 peak by flow cytometry; type: cell-based, human; conditions: 10 μM, 24 h
Description: (§1) Incubation of Compound 3 with different human hematological cancer cell lines, including CLL, MM, acute T-cell and acute myeloid leukaemia cell lines, induced apoptosis, as assessed by the appearance of cells with a DNA content less than G1, characteristic of early apoptosis (sub-G1 peak; after 6-9 h treatment). More than 20% apoptosis was induced after 24 h treatment of 10 μM Compound 3 with EHEB (CLL), RPMI-8226 (MM), Jurkat (acute T-cell leukaemia) and HL-60 (acute myeloid leukaemia) cells.
(§2) Induction of apoptosis in EHEB cells by Compound 3 (FIG. 7A): EHEB cells were incubated for the indicated times with 10 μM Compound 3, and apoptosis was then quantitated as percentage of cells in the sub-G1 region in cell cycle analysis by flow cytometry. The position of the sub-G1 peak (hypodiploidy), integrated by apoptotic cells, as well as the G0/G1 and G2/M peaks are indicated by arrows. Untreated control cells were run in parallel. The percentage of cells with a DNA content less than G1 (sub-G1) is indicated in each histogram. The experiment shown is representative of three performed. Briefly, cells (5×10^5) were centrifuged and fixed overnight in 70% ethanol at 4° C. Cells were washed 3 times with PBS, incubated for 1 h with 1 mg/ml RNaseA and 20 μg/ml propidium iodide at room temperature, and then analyzed for cell cycle with a Becton Dickinson FACS Calibur flow cytometer (San Jose, Calif.). Quantitation of apoptotic cells was calculated as the percentage of cells in the sub-G1 region (hypodiploidy) in cell cycle analysis.

EHEB (CLL) = test: Apoptosis, sub-G1 peak by flow cytometry; type: cell-based, human; conditions: 10 μM, 24 h
Description: as §1, §2

RPMI-8226 (MM) = test: Apoptosis, sub-G1 peak by flow cytometry; type: cell-based, human; conditions: 10 μM, 24 h
Description: as §1, §2

[4] = test system: HL-60 (acute myeloid leukaemia); test: Apoptosis, sub-G1 peak by flow cytometry; type: cell-based, human; conditions: 10 μM, 24 h
Description: as §1, §2

[5] = Cytotoxicity for human non-tumoral cells, XTT; type: cell-based; conditions: Fibroblasts
Description: (§3) The cytotoxicity of the compounds for human non-tumoral cells was studied in fibroblasts, HUVEC cells and resting PBLs (Peripheral Blood lymphocytes).
(§4) Distinct amounts of exponentially growing cells were seeded in 96-well flat-bottomed microtiter plates in a final volume of 100 μl were seeded in 96-well flat-bottomed microtiter plates, and incubated at 37° C. in a humidified atmosphere of 5% CO2/95% air for 24 h to allow the cells attach to the plates. Then, cells were incubated with different concentrations of the assayed compound at 37° C. under the 5% CO2/95% air atmosphere for 72 h. Cell proliferation was quantified using the XTT cell proliferation kit (Roche Molecular Biochemicals, Mannheim, Germany) following the manufacturer's instructions. Briefly, a freshly prepared mixture solution (50 μl) of XTT labelling reagent and PMS (N-methyldibenzopyrazine methyl sulfate) electron coupling reagent was added to each well. The resulting mixtures were further incubated for 4 h in a humidified atmosphere (37° C., 5% CO2), and the absorbance of the formazan product generated was measured with a microtiter plate reader at a test wavelength of 490 nm and a reference wavelength of 655 nm. The IC50 (50% inhibitory concentration) was then calculated as the drug concentration causing a 50% inhibition of cell proliferation. Data are shown as mean values of four independent experiments each performed in triplicate.

[6] = Cytotoxicity for human non-tumoral cells, XTT; type: cell-based; conditions: HUVEC cells (primary, from human cords)
Description: as §3
HUVEC cells were obtained by treating human cords with collagenase type I, […] in Hank's medium incubating 20 minutes at 37° C. Cells were collected afterwards and cultivated in medium M199 with supplements of 20% FBS, 1% P/S and 25 mg/500 ml of medium ECGF, Cells were grown on a 0.2% gelatin matrix.
as §4

resting human PBLs = test: Apoptosis of resting human PBLs; type: cell-based
Description: To isolate normal peripheral blood lymphocytes (PBLs), mononuclear cells were obtained from fresh human peripheral blood from healthy volunteers by centrifugation on Ficoll-Hypaque density gradients, washed with phosphate-buffered saline (PBS), and resuspended in RPMI-1640 medium containing 10% (v/v) heat-inactivated FBS, 2 mM L-glutamine, 100 U/ml penicillin, and 100 μg/ml streptomycin as described (Cabaner et al. Br. J. Pharmacol 127:813-825.1999). Monocytes were depleted by culture dish adherence after overnight incubation. Nonadherent cells (lymphocytes) were washed with PBS and collected. PBL preparations were typically 70-75% CD3^+, 24-29% CD 19^+, and less than 0.4% CD 14^+.

Which “concentration inducing apoptosis in haematological cancer cell lines” value [1] does the source give for `Fc1ccc(CNCCCC=C(c2ccccc2)c2ccccc2)cc1` [Compound 3, (5,5-diphenyl-pent-4-enyl)-(4-fluoro-benzyl)-amine hydrocloride] here?
The value was ~10^−6 M.

What about the “tumour volume of human colorectal cancer” value [2] of the same molecule?
Its value is “clear reduction effect of the tumour volume”.

And the apoptosis [3]?
The apoptosis was “More than 20%”.

What about the apoptosis (EHEB (CLL)) of the same molecule?
Its apoptosis is “More than 20%”.

What about the apoptosis (RPMI-8226 (MM)) of the same molecule?
The apoptosis was “More than 20%”.

What about the apoptosis [4] of the same molecule?
The apoptosis was “More than 20%”.

And the IC50 at 72 h [5]?
Its IC50 at 72 h is 19 µM.

What about the IC50 at 72 h [6] of the same molecule?
The IC50 at 72 h was 16 µM.

What about the “% Apoptosis PBLs” value (resting human PBLs; 10^−4 M) of the same molecule?
The value was 7.5%.

And the “% Apoptosis PBLs” value (resting human PBLs; 10^−5 M)?
Its value is 1.3%.

And the “effect on PBLs” value (resting human PBLs; even at 10^−4 M)?
Its value is “hardly affect PBLs”.
